Molecular target: Transitional endoplasmic reticulum ATPase (Mus musculus, UniProt Q01853)
Assay: Inhibition Assay: Mouse VCP cDNA was added with a DNA sequence corresponding to histidine tag at the amino-terminal, subcloned into a baculovirus vector pVL1392 (BD Bioscience), and expressed in Sf-9 insect cells. The protein was purified with a nickel column (GE Healthcare). The concentration of the protein was adjusted to 0.25-0.5 ug/ml and the protein was stored in a solution containing 50 mM TrisCl pH 8.0, 5 mM EDTA, 10% glycerol, and 15 mM DTT. The ATPase activity was determined as follows. 500 ng of the purified VCP was mixed with 100 uM [gamma-32P]ATP (18.5 GBq/mmol) and the test substance in 20 uL of ATPase buffer (20 mM HEPES (pH7.4), 50 mM KCl, 5 mM MgCl2, 15 mM DTT), and incubated at 37° C. for 10 minutes.The enzyme reaction was stopped with addition of 200 uL of an ice-cold solution containing 7% TCA and 1 mM K2HPO4. 50ul of a solution containing 3.75% ammonium molybdate and 0.02M tungstate silicic/3 NH2SO4 was added, followed by 300 uL of […].

Sequence of Transitional endoplasmic reticulum ATPase (Q01853 whole entry): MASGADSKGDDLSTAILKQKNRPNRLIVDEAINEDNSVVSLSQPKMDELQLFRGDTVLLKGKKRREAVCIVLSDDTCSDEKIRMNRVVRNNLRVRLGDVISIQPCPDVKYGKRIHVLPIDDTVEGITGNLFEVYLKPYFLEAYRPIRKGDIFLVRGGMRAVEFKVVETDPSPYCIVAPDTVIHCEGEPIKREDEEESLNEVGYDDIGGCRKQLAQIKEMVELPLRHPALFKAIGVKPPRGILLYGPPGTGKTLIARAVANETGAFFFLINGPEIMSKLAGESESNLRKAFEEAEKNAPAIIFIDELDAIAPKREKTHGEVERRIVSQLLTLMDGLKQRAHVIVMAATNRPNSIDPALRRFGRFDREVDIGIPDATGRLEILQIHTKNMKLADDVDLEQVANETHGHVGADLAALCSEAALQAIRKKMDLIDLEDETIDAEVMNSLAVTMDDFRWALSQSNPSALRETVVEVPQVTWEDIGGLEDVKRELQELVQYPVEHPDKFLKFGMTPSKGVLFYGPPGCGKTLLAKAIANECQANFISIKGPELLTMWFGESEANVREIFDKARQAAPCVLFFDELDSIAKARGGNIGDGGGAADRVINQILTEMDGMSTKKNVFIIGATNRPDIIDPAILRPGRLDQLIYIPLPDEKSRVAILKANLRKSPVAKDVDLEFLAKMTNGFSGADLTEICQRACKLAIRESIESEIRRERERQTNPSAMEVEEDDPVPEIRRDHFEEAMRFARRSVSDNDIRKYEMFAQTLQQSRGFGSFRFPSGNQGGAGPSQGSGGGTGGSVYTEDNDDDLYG

Row | Compound | IC50 [nM]
1 | Nc1c(/N=N/c2ccc(-c3cc(C(F)(F)F)cc(C(F)(F)F)c3)nc2)cc(S(=O)(=O)O)c2ccccc12 | 2750
2 | CC(=O)c1ccc(-c2ccc(/N=N/c3cc(S(=O)(=O)O)c4ccccc4c3N)cn2)cc1 | 136

Reference: ChEMBL document CHEMBL3886397, “Agent for treatment of eye diseases” (2015)
